We go through 19 compounds from EP0795549A1, “Bis-aryloxy(amino)-triazinyl-oxy(amino)aryl derivatives, their preparation and their use as antiviral agents” (American Cyanamid Company, priority 1996, dated 1997).

Where a name gives a salt, the structure may show the parent alone. Read-outs that look alike come from different tables or passages of the source.

The subject of experiment [1] is RSV (A2). As to the kind of experiment: viral yield reduction (growth inhibition) assay, RSV. Format: cell-based, Respiratory Syncitial Virus. The conditions noted are these: for IC50: human respiratory syncytial virus. On the procedure: (§1) The compounds were tested for biological activity using viral yield reduction assays. Host cells (indicated as HF for human foreskin fibroblasts and as vero, the commonly used African green monkey cell line, in Tables 1 and 1a) were plated at 4 x 10^4 cells/well in cell growth medium with 2% fetal bovine serum or 2% calf serum in 96-well plates (0.1 ml/well) and incubated overnight. The compounds were added to individual wells to give final concentrations ranging from 50 to 0.1 µg/ml in two-fold concentration steps. After 1 hour, virus was added, and the incubation was continued for 4 days with RSV or CMV and for 2 days with HSV. At the end of the experiment, the amount of virus growth was quantitated and the yield reduction at various concentrations of compound was calculated. This allows estimation of the concentration of compound giving 50% reduction in virus growth (IC50).

Experiment [2] deals with CMV (Ad169). Put plainly: viral yield reduction (growth inhibition) assay, CMV. Format: cell-based, Cytomegalovirus. As to conditions: for IC50 µG/mL IN GROWTH […]/ HF: HF host cells; for Antiviral IC50 µg/ml CMV /HF: Table 1a. On the procedure:
as §1

For experiment [3], the system named is HSV1 (Patton). Put plainly: viral yield reduction (growth inhibition) assay, HSV. As to conditions: for IC50 µG/mL IN GROWTH […]/ HF: HF host cells; for Antiviral IC50 µg/ml HSV Vero: Table 1a, format not given. Format: cell-based, Herpes Simplex Virus. Here is the method: as §1
Experiment [4] concerns RSV. Put plainly: viral plaque reduction assay, RSV. It is filed as cell-based, Respiratory Syncitial Virus. The conditions noted are these: RSV (A2), vero host cells. A general note: In a plaque reduction assay, fewer plaques than in the control indicate reduced infectivity or spread.
Experiment [5] concerns CMV (Ad169). Put plainly: viral plaque reduction assay, CMV. Format: cell-based, Cytomegalovirus. As to conditions: CMV (Ad169), HF host cells.
In experiment [6] the test system is RSV A2. It is filed as in vivo, cotton rats. The conditions noted are these: rat, in vivo.
[7] abbreviates: HF host cells, read-out: IC50 µG/mL IN GROWTH […]/ HF.
Setting [8] is: vero host cells, read-out: IC50 µG/mL IN GROWTH […]/ VERO.
Where [9] appears, read: Human betaherpesvirus 5, HF host cells, read-out: IC50 µG/mL IN GROWTH […]/ HF.
The mark [10] stands for this setting: Table 1a, HF, yield reduction or plaque format not specified.

Consider “4,4'-Bis[4,6-di[3-aminophenyl-N,N-bis(2-carbamoyl-ethyl)sulfonylimino]-1,3,5-triazin-2-yloxy]-biphenyl-2,2'-disulfonic acid, disodium salt [Example 19]”, for which the “IC50 µG/mL IN GROWTH […]/ HF” value in experiment [1] (HF host cells) was 2 µg/mL; in experiment [2], 12 µg/mL; in experiment [3] (HSV1 (Patton)), 30 µg/mL. Moreover, the “IC50 µG/mL IN GROWTH […]/ VERO” value in experiment [1] (vero host cells) is 3 µg/mL; in experiment [3] (HSV1 (Patton), vero host cells) it was roughly 50 µg/mL.

On to “4-[4,6-Di[3-aminophenyl-N,N-bis(2-carbamoylethyl)sulfonylimino]-1,3,5-triazin-2-ylamino]-4'-[4-chloro-6-[3-aminophenyl-N,N-bis(2-carbamoylethyl)sulfonylimino] -1,3,5-triazin-2-ylamino]-stilbene-2,2'-disulphonic acid, disodium salt [Example 7]”, for which the “IC50 µG/mL IN GROWTH […]/ HF” value in experiment [1] (HF host cells) is 0.7 µg/mL. Further, in experiment [1] (vero host cells), the “IC50 µG/mL IN GROWTH […]/ VERO” value was found to be 1 µg/mL. Moreover, in experiment [4], the “IC50µG/mL IN PLAQUE ASSAY RSV/ VERO” value stood at 0.8 µg/mL. Further, the “IC50µG/mL IN PLAQUE ASSAY CMV/ HF” value in experiment [5] worked out at 10 µg/mL.

In the case of `NS(=O)(=O)c1cccc(Nc2nc(Nc3cccc(S(N)(=O)=O)c3)nc(Nc3ccc(-c4ccc(Nc5nc(Nc6cccc(S(N)(=O)=O)c6)nc(Nc6cccc(S(N)(=O)=O)c6)n5)cc4S(=O)(=O)O)c(S(=O)(=O)O)c3)n2)c1` [Example 16, 4,4'-Bis[4,6-di[3-aminophenylsylphonylimido]-1,3,5-triazin-2-ylamino]-biphenyl-2,2'-disulfonic acid, disodium salt], the IC50 in experiment [1] (setting [7]) is 5 µg/mL; in experiment [1] (setting [8]) it was roughly 8.3 µg/mL; in experiment [2] (setting [9]) it was 3 µg/mL; in experiment [5] (Human betaherpesvirus 5, read-out: IC50µG/mL IN PLAQUE ASSAY CMV/ HF), 3 µg/mL.

Regarding “4-[4,6-Di[3-aminophenyl-N,N-bis(2-carbamoylethyl)sulfonylimino]-1,3,5-triazin-2-ylamino]-4'-[4-[3-aminophenyl-N,N-bis(2-carbamoylethyl)sulfonylimino]-6-[3 -aminophenyl-N,N bis(3-propionic acid)]-1,3,5-triazin-2-ylamino]-stilbene-2,2'-disulphonic acid, disodium salt [Example 10]”, in experiment [1] (HF host cells), the “IC50 µG/mL IN GROWTH […]/ HF” value is less than 3 µg/mL. The “IC50 µG/mL IN GROWTH […]/ VERO” value in experiment [1] (vero host cells) is 0.7 µg/mL.

Consider “4',4-Bis-{4,6-bis-[3-(bis-carbamoylmethyl-1-sulfamoyl)-phenylamino]-[1,3,5]triazin-2-ylamino}-biphenyl-2,2'-dicarboxylic acid, disodium salt [Example 44]”, for which the “Antiviral IC50 µg/ml RSV/ HF” value in experiment [1] (setting [10]) worked out at 0.6 µg/mL. In addition, the “Antiviral IC50 µg/ml CMV /HF” value in experiment [2] (HF, format not given) stood at 1.5 µg/mL. For the same compound, in experiment [3] (HSV1 (Patton)), the “Antiviral IC50 µg/ml HSV Vero” value stood at 15 µg/mL.

Turning to “9,9-Dioxo-2,7-Bis[4,6-di[3-aminophenyl-N,N-bis(2-carbamoylethyl)sulfonylimino]-1,3,5-triazin-2-ylamino]-dibenzothiophen-3,6-disulfonic acid, disodium salt [Example 23]”, in experiment [4], the “IC50µG/mL IN PLAQUE ASSAY RSV/ VERO” value is 8 µg/mL. In addition, in experiment [5], the “IC50µG/mL IN PLAQUE ASSAY CMV/ HF” value was found to be 20 µg/mL.

Regarding “4,4'-Bis[4,6-di[4-amino-N'-[3-aminophenyl-N,N-bis(2-hydroxyethyl)sulfonylimino]-benzensulfonamide]-1,3,5-triazin-2-ylamino]-stilbene-2,2'-disulfonic acid, disodium salt [Example 25]”, the “IC50 µG/mL IN GROWTH […]/ VERO” value in experiment [1] (vero host cells) stood at 30 µg/mL.

Regarding “4,4'-Bis[4-chloro-6-di[4-amino-N'-[3-aminophenyl-N,N-bis(2-carbamoylethyl)sulfonylimino]-benzamide]-1,3,5-triazin-2-ylamino]-stilbene-2,2' -disulfonic acid, disodium salt [Example 24]”, in experiment [1] (vero host cells), the “IC50 µG/mL IN GROWTH […]/ VERO” value was found to be 50 µg/mL.

On to `NC(=O)c1ncn([C@@H]2O[C@H](CO)[C@@H](O)[C@H]2O)n1` [Ribavirin, ribavirin, reference compound], for which, in experiment [6], the “Fold red. log10” value came to 0.8 log10 and the “Mean titer log10/g lung” value was determined as 3.3 log10/g lung.

Turning to “4,4'-Bis[4,6-di[3-aminophenyl-N,N-bis(3-hydroxypropyl)-sulfonylimino]-1,3,5-triazin-2-ylamino]-biphenyl-2,2'-disulfonic acid, disodium salt [Example 59]”, in experiment [1] (setting [10]), the “Antiviral IC50 µg/ml RSV/ HF” value was determined as 0.5 µg/mL. Moreover, in experiment [2] (HF, format not given), the “Antiviral IC50 µg/ml CMV /HF” value came to 4 µg/mL. The “Antiviral IC50 µg/ml HSV Vero” value in experiment [3] (HSV1 (Patton)) was found to be 20 µg/mL.

As to “4,4'-Bis[4,6-di[3-aminophenyl-N,N-bis(2-carbamoyl-ethyl)sulfonylimino]-1,3,5-triazin-2-ylamino]-bibenzyl-2,2'-disulfonic acid, disodium salt [Example 11]”, the “IC50 µG/mL IN GROWTH […]/ HF” value is 10 µg/mL in experiment [1] (HF host cells) and greater than 50 µg/mL in experiment [2]. For the same compound, in experiment [1] (vero host cells), the “IC50 µG/mL IN GROWTH […]/ VERO” value worked out at 10 µg/mL.

For the compound “4,4'-Bis[4,6-di[4-aminophenyl-N,N-bis(2-carbamoyl-ethyl)sulfonylimino]-1,3,5-triazin-2-ylamino]-biphenyl-2,2'-disulfonic acid, disodium salt [Example 13]”, the “IC50 µG/mL IN GROWTH […]/ HF” value in experiment [1] (HF host cells) amounted to 8 µg/mL; in experiment [2], 20 µg/mL; in experiment [3] (HSV1 (Patton)), 10 µg/mL. The “IC50 µG/mL IN GROWTH […]/ VERO” value in experiment [1] (vero host cells) came out at 8 µg/mL; in experiment [3] (HSV1 (Patton), vero host cells), 30 µg/mL.

On to `CC(O)CN(CC(C)O)S(=O)(=O)c1cccc(Nc2nc(Nc3cccc(S(=O)(=O)N(CC(C)O)CC(C)O)c3)nc(Nc3ccc(-c4ccc(Nc5nc(Nc6cccc(S(=O)(=O)N(CC(C)O)CC(C)O)c6)nc(Nc6cccc(S(=O)(=O)N(CC(C)O)CC(C)O)c6)n5)cc4C(=O)[O-])c(C(=O)[O-])c3)n2)c1.[Na+].[Na+]` (stereo not shown) [Example 41, 4,4'-Bis-(4,6-bis-{3-[bis-(2-hydroxy-propyl)-sulfamoyl]-phenylamino}-[1,3,5]triazin-2-ylamino)biphenyl-2,2'-dicarboxylic acid, disodium salt], for which the IC50 in experiment [1] (Table 1a, HF, yield reduction or plaque format not specified, read-out: Antiviral IC50 µg/ml RSV/ HF) is 2 µg/mL; in experiment [2] (Human betaherpesvirus 5, Table 1a, HF, format not given, read-out: Antiviral IC50 µg/ml CMV /HF), 8 µg/mL; in experiment [3] (Human alphaherpesvirus 1, Vero, read-out: Antiviral IC50 µg/ml HSV Vero), greater than 50 µg/mL.

“4,4'-Bis[4-chloro-6-[3-aminophenyl-N,N-bis(2-carbamoylethyl)sulfonylimino]-1,3,5-triazin-2-ylamino]-stilbene-2,2'-disulphonic acid, disodium salt [Example 8]”: the “IC50 µG/mL IN GROWTH […]/ HF” value in experiment [1] (HF host cells) and in experiment [2] was greater than 50 µg/mL each time. The “IC50 µG/mL IN GROWTH […]/ VERO” value in experiment [1] (vero host cells) was greater than 50 µg/mL.

`O=S(=O)(O)c1cc(O)ccc1-c1ccc(O)cc1S(=O)(=O)O` [Example 17, 4,4'-Dihydroxybiphenyl-2,2'-disulfonic acid]: the IC50 in experiment [1] (setting [7]) is greater than 50 µg/mL; in experiment [1] (setting [8]), greater than 50 µg/mL; in experiment [3] (Human alphaherpesvirus 1, HSV1 (Patton), vero host cells, read-out: IC50 µG/mL IN GROWTH INHIBITION HSV/ VERO), greater than 50 µg/mL.

For “5,5'-Dimethyl-4,4'-bis[4,6-di[3-aminophenyl-N,N-bis(2-carbamoyl-ethyl)sulfonylimino]-1,3,5-triazin-2-ylamino]-biphenyl-2,2'-disulfonic acid, disodium salt [Example 20]”, the “IC50 µG/mL IN GROWTH […]/ HF” value in experiment [1] (HF host cells) is 0.5 µg/mL. Further, the “IC50 µG/mL IN GROWTH […]/ VERO” value in experiment [3] (HSV1 (Patton), vero host cells) was 40 µg/mL.

For `NC(=O)CCN(CCC(N)=O)S(=O)(=O)c1cccc(Nc2nc(Cl)nc(Nc3cccc(S(=O)(=O)N(CCC(N)=O)CCC(N)=O)c3)n2)c1` [Example 6, 2-Chloro-4,6-di[3-aminophenyl-N,N-bis(2-carbamoyl-ethyl)sulfonylimino]-1,3,5-triazine], the IC50 in experiment [1] (setting [7]), in experiment [1] (setting [8]) and in experiment [2] (setting [9]) was greater than 50 µg/mL each time.

As for “4-[4,6-Di[3-aminophenyl-N,N-bis(2-carbamoylethyl)sulfonylimino]-1,3,5-triazin-2-ylamino]-4'-[4-[3-aminophenyl-N,N-bis(2-carbamoylethyl)sulfonylimino]-6-[3 -aminophenyl-N-(2-carbamoylethyl)-N'-(3-propionic acid)]-1,3,5-triazin-2-ylamino]stilbene-2,2'-disulphonic acid, disodium salt [Example 9]”, the “IC50 µG/mL IN GROWTH […]/ HF” value in experiment [1] (HF host cells) was less than 3 µg/mL. The “IC50 µG/mL IN GROWTH […]/ VERO” value in experiment [1] (vero host cells) came to 0.4 µg/mL. The “IC50µG/mL IN PLAQUE ASSAY RSV/ VERO” value in experiment [4] came to 0.3 µg/mL. In addition, the “IC50µG/mL IN PLAQUE ASSAY CMV/ HF” value in experiment [5] is 10 µg/mL.

On to “4,4'-Bis[4,6-di[4-aminophenyl-N,N-bis(2-carbamoyl-ethyl)sulfonylimino]-1,3,5-triazin-2-ylamino]-stilbene-2,2'-disulfonic acid, disodium salt [Example 12]”, for which the “IC50µG/mL IN PLAQUE ASSAY RSV/ VERO” value in experiment [4] stood at 8 µg/mL. The “IC50µG/mL IN PLAQUE ASSAY CMV/ HF” value in experiment [5] was found to be 10 µg/mL.
